We go through 2 compounds from US20070179110A1, “EXPRESSION OF IMMUNOGENIC SUBSTANCES” (Mayo Foundation for Medical Education and Research, priority 1997, published 2007).

The test system of data set [1] is chTCR gene expression. Put plainly: Regulation of surface chTCR expression by tetracyclines in JLAV12S (pLAV12-transfected Jurkat) cells, FACS. The class given is cell-based, human. The settings on record: for surface chTCRs down-regulated: 1 μg/ml; for surface chTCRs down-regulated / concentration for maximal repression: 48 hours. Here is the method: (§1) The Jurkat T cell line (clone E6-l) was maintained in RPMI 1640 supplemented with 10% foetal calf serum (FCS), 2 mM L-glutamine, 100 U/ml penicillin, 100 μg/ml streptomycin and 25 mM HEPES buffer (all from GIBCO-BRL, Gaithersburg, Md.), referred to as complete medium (CM). To generate stable cell lines Jurkat cells were transfected with linearized plasmid DNA (10 μg) by electroporation, at […] and 960 μF, as described previously (13). Transfectants were selected in CM supplemented with 0.4 mg/ml of hygromycin B (Calbiochem, San Diego, Calif.). Stable cell lines were established after 3-4 weeks and analyzed by FACS for expression of the chTCR. To select a population of chTCR ζ expressing cells, stable Jurkat cells transfected with the linearized pLAV12 or pCEP4.aNIP.TCR ζ derived plasmid fragments were FACS sorted (see below). The resultant populations were cloned twice by limiting dilution and screened for protein expression by flow cytometry.
(§2) Expression of cell surface proteins was performed by standard direct immunofluorescence as described (14) using saturating amounts of FITC-conjugated antibodies. Dead cells were excluded from analysis using a combination of propidium iodide and forward light scatter. Appropriate FITC isotype-matched irrelevant Abs were used in all experiments. The samples were analysed with a FACScan® (Becton Dickinson, Mountain View, Calif.). A minimum of 20,000 cells was analysed for each sample. Subsequent re-analysis of data was performed using the CELLQuest software (version 1.2) (Becton Dickinson). Additionally, cells stained with FITC-conjugated goat antisera to mouse λ light chain were sorted under sterile conditions on a cell sorter (FACScalibur, Becton Dickinson).
To study the time-course of inactivation of gene expression, JLAV12S cells were analysed at different times after addition of the antibiotics at 1 μg/ml (FIG. 2B).
(§3) A dose-response curve of gene repression was determined using different concentrations of Tet or Dox. After 48 hours of treatment, the cells were harvested and the expression of the chTCR was studied by FACS analysis.
(§4) Stably transfected uncloned (JLAV12S, left hand column) and cloned (1F5, middle column; and 2E11, right hand column) Jurkat cell populations were cultured for 48 hours in the presence of different concentrations (0 ng/ml top row, 0.1 ng/ml second row, 1 ng/ml third row, and 10 ng/ml bottom row) of Tet (broken line) or Dox (solid line) and the surface expression of scFv-TCR ζ molecules was examined. Negative controls (FITC-conjugated goat antisera to mouse IgG) are overlaid (filled curve). The fluorescence channel number is plotted along the x axis, and the y axis represents the relative cell number.

Data set [2] concerns chTCR gene expression. Nature of the data set: Regulation of surface chTCR expression in cloned pLAV12 transfectants (1E5/1F5 and 2E11), FACS. Type of data set: cell-based, human. Here is the method:
as §1, §2
The selected population of pLAV12 transfectants (JLAV12S) was then cloned by limiting dilution and two subclones expressing the chTCR at low (2E11) and intermediate (IF5) levels (FIG. 3) were selected for further study.
as §3, §4

The subject of the next data set is Jurkat cells. Nature of the data set: Anti-CD3ε induced IL-2 secretion of Jurkat cells (IL-2 release assay). The class given is cell-based. The conditions noted are these: Homo sapiens, 1 μg/ml, not shown. Here is the method:
(§5) Subsequently the cells were washed, counted and stimulated (10^5/well) in triplicate with plastic-immobilised NIP10-BSA conjugates (iNIP10-BSA) or plastic immobilised anti-CD3E mAb (ianti-CD3) in fresh CM alone or in the presence of the drugs (12). The plates were incubated at 37° C. in 5% CO2. After 20 hours supernatants were harvested and assayed for IL-2 activity using an ELISA kit (Genzyme Diagnostics, Cambridge, Mass.).

In a further data set the test system is JN3S cells. Put plainly: IL-2 production of JN3S cells stimulated with iNIP10-BSA. The class given is cell-based, human. The conditions noted are these: doxycycline at a concentration of less than 1 μg/ml. How it is done:
as §5
The inventors next determined whether tetracycline-mediated suppression of the chTCR could induce a reversible state of antigen unresponsiveness in the transfected Jurkat cells. JLAV12S and JN3S cells were preincubated for 48 hours in increasing concentrations of Dox and Tet and then stimulated with immobilized NIP-BSA, following which their IL-2 production was measured.
FIGS. 5A and 5B are bar charts showing IL-2 production (in pg/ml) by transfected JLAV12S (5A) or JN3S (5B) cells stimulated with iNIP10-BSA in the absence or presence of Tet or Dox. Cells were preincubated for a 48 hours period in the absence or presence of the drugs (at the indicated concentration in ng/ml), washed and stimulated (10^5/well) with plastic immobilised NIP10-BSA conjugates (50 μg/ml) in fresh CM alone (solid bar) or in the presence of Tet (shaded bars) or Dox (open bars) at the indicated concentrations. One of two similar experiments is shown.

A further data set deals with JLAV12S and JN3S cells. The settings on record: 1 μg/ml, 48 hours; data not shown.

A word on the inhibition: it is the relative decrease from the control value, in per cent. A high value points to strong suppression. For `C[C@H]1c2cccc(O)c2C(=O)C2=C(O)[C@]3(O)C(=O)C(C(N)=O)=C(O)[C@@H](N(C)C)[C@@H]3[C@@H](O)[C@@H]21` [doxycycline], in the data set on chTCR gene expression [1] (JLAV12S cells), the “surface chTCRs down-regulated” value stood at 90% and the “concentration for maximal repression” value is “greater than or equal to 1 ng/ml”. For the same compound, the “level of chTCR as % of its maximal expression” value in the data set with chTCR gene expression [2] (1E5 clone) is given as “about 10%”. For the same compound, the “level of chTCR as % of its maximal expression” value in the data set on chTCR gene expression [2] (2E11 clone) is reported as approximately 20%. The “concentration at which expression of chTCRs was maximally repressed” value in the data set with chTCR gene expression [2] (clonal populations 1E5 and 2E11, 48 hours) was determined as 100 pg/mL. The inhibition at 1 µg/mL in the data set with Jurkat cells turned out to be 25%. Also, the “effect on IL-2 production upon stimulation with iNIP10-BSA conjugates” value in the data set with JN3S cells is recorded as “no inhibitory effect”. Further, in the data set on JLAV12S and JN3S cells, the “changes in cell viability” value was “No changes”.
As to `CN(C)[C@@H]1C(O)=C(C(N)=O)C(=O)[C@@]2(O)C(O)=C3C(=O)c4c(O)cccc4[C@@](C)(O)[C@H]3C[C@@H]12` [tetracycline], the “surface chTCRs down-regulated” value with chTCR gene expression [1] (JLAV12S cells) is 90%. Further, the “concentration for maximal repression” value in the data set with chTCR gene expression [1] (all the analysed cell lines) is listed as “greater than or equal to 10 ng/ml”. Also, the “concentration of maximum repression” value in the data set on chTCR gene expression [1] (in our system) turned out to be 10 ng/mL. The entries for the “level of chTCR as % of its maximal expression” value in the data set with chTCR gene expression [2] (1E5 clone) and with chTCR gene expression [2] (2E11 clone) were “about 10%” and approximately 20%, respectively. In addition, the “effect on IL-2 production upon stimulation with iNIP10-BSA conjugates” value in the data set on JN3S cells is on record as “no inhibitory effect”.
